# Measured values as given in the supplement of paper PMC10307832.
# What was measured:
# Test in all cases: relative viability (nuclei count vs DMSO), 5 days (fraction); higher = more cells survive
# HOP-62 = system: HOP-62
# In short: (§1)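 Relative viability divides the nuclei count in treated wells by that in vehicle wells. Lung cancer cell lines were seeded in 1536-well plates, dosed by pin tool the next day, and fixed and stained after 5 days in one step with final 0.05% Triton X-100, 1% formaldehyde and 1 ug/ml Hoechst. Dosing was a single drug or a fixed anchor-drug dose plus five library-drug doses (not always all listed) in √10 steps, and values are medians of duplicate plates imaged at 4×.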
# NCI-H1299 = system: NCI-H1299
# In short: as §1
# A549 = system: A549
# In short: as §1
# UMC-11 = system: UMC-11
# In short: as §1
# Calu-6 = system: Calu-6
# In short: as §1
# IA-LM = system: IA-LM
# In short: as §1
# EBC-1 = system: EBC-1
# In short: as §1
# NCI-H23 = system: NCI-H23
# In short: as §1
# ABC-1 = system: ABC-1
# In short: as §1
# NCI-H2009 = system: NCI-H2009
# In short: as §1
# NCI-H322M = system: NCI-H322M
# In short: as §1
# NCI-H1703 = system: NCI-H1703
# In short: as §1
# NCI-H1355 = system: NCI-H1355
# In short: as §1
smiles,measurement,setting,value
COCC1(CO)C(=O)C2CCN1CC2 (stereo not drawn) [PRIMA-1MET] + CS(=O)(=O)CCNCc1ccc(-c2ccc3ncnc(Nc4ccc(OCc5cccc(F)c5)c(Cl)c4)c3c2)o1 [Lapatinib] (partner 2 µM),relative viability,HOP-62; first compound 0.2 µM,1.17
same,relative viability,HOP-62; first compound 0.6325 µM,0.911
same,relative viability,HOP-62; first compound 2 µM,0.887
same,relative viability,HOP-62; first compound 6.325 µM,1.06
same,relative viability,HOP-62; first compound 20 µM,0.853
same,relative viability,NCI-H1299; first compound 0.2 µM,0.977
same,relative viability,NCI-H1299; first compound 0.6325 µM,0.996
same,relative viability,NCI-H1299; first compound 2 µM,0.969
same,relative viability,NCI-H1299; first compound 6.325 µM,0.99
same,relative viability,NCI-H1299; first compound 20 µM,0.947
same,relative viability,A549; first compound 0.2 µM,1.07
same,relative viability,A549; first compound 0.6325 µM,0.977
same,relative viability,A549; first compound 2 µM,1.05
same,relative viability,A549; first compound 6.325 µM,1.01
same,relative viability,A549; first compound 20 µM,0.943
same,relative viability,UMC-11; first compound 0.2 µM,1.12
same,relative viability,UMC-11; first compound 0.6325 µM,0.898
same,relative viability,UMC-11; first compound 2 µM,0.755
same,relative viability,UMC-11; first compound 6.325 µM,0.961
same,relative viability,UMC-11; first compound 20 µM,0.991
same,relative viability,Calu-6; first compound 0.2 µM,1.14
same,relative viability,Calu-6; first compound 0.6325 µM,1.08
same,relative viability,Calu-6; first compound 2 µM,1.11
same,relative viability,Calu-6; first compound 6.325 µM,1.01
same,relative viability,Calu-6; first compound 20 µM,0.847
same,relative viability,IA-LM; first compound 0.2 µM,0.686
same,relative viability,IA-LM; first compound 0.6325 µM,0.746
same,relative viability,IA-LM; first compound 2 µM,0.724
same,relative viability,IA-LM; first compound 6.325 µM,0.73
same,relative viability,IA-LM; first compound 20 µM,0.637
same,relative viability,EBC-1; first compound 0.2 µM,0.22
same,relative viability,EBC-1; first compound 0.6325 µM,0.214
same,relative viability,EBC-1; first compound 2 µM,0.203
same,relative viability,EBC-1; first compound 6.325 µM,0.216
same,relative viability,EBC-1; first compound 20 µM,0.201
same,relative viability,NCI-H23; first compound 0.2 µM,1.29
same,relative viability,NCI-H23; first compound 0.6325 µM,0.951
same,relative viability,NCI-H23; first compound 2 µM,0.897
same,relative viability,NCI-H23; first compound 6.325 µM,0.961
same,relative viability,NCI-H23; first compound 20 µM,0.117
same,relative viability,ABC-1; first compound 0.2 µM,1.05
same,relative viability,ABC-1; first compound 0.6325 µM,1.11
same,relative viability,ABC-1; first compound 2 µM,0.956
same,relative viability,ABC-1; first compound 6.325 µM,1.17
same,relative viability,ABC-1; first compound 20 µM,1.03
same,relative viability,NCI-H2009; first compound 0.2 µM,0.66
same,relative viability,NCI-H2009; first compound 0.6325 µM,0.844
same,relative viability,NCI-H2009; first compound 2 µM,0.669
same,relative viability,NCI-H2009; first compound 6.325 µM,0.905
same,relative viability,NCI-H2009; first compound 20 µM,0.0051
same,relative viability,NCI-H322M; first compound 0.2 µM,0.634
same,relative viability,NCI-H322M; first compound 6.325 µM,0.629
same,relative viability,NCI-H322M; first compound 20 µM,0.61
same,relative viability,NCI-H1703; first compound 0.2 µM,1.25
same,relative viability,NCI-H1703; first compound 0.6325 µM,0.834
same,relative viability,NCI-H1703; first compound 2 µM,1.01
same,relative viability,NCI-H1703; first compound 6.325 µM,1.04
same,relative viability,NCI-H1703; first compound 20 µM,0.145
same,relative viability,NCI-H1355; first compound 0.2 µM,1.12
same,relative viability,NCI-H1355; first compound 0.6325 µM,0.933
same,relative viability,NCI-H1355; first compound 2 µM,0.893
same,relative viability,NCI-H1355; first compound 6.325 µM,1
same,relative viability,NCI-H1355; first compound 20 µM,0.998
